From patent publication US20160221948A1, “NITROGEN-CONTAINING SATURATED HETEROCYCLIC COMPOUND” (SUMITOMO CHEMICAL COMPANY, LIMITED, priority 2013, published 2016) come the findings set out here.

One data set deals with Crlj: WI rats. Briefly: Acetylcholine release enhancing action, hippocampus microdialysis test using rats. In kind it is in vivo, rat. To be noted: 10 mg/kg (oral), 60 minutes after administration, high potassium stimulation. As to the method: Examination of Acetylcholine Release Enhancing Action with Microdialysis Test Using Rats
A guide cannula was placed into the hippocampus of Crlj: WI rats, and microdialysis was performed by inserting a probe after the animals were recovered. After administering the compounds involved with the present invention, the hippocampus was stimulated by changing the perfusate into the high potassium solution for 15 minutes. Acetylcholine levels in the perfusate were analyzed with a HPLC-ECD apparatus.

For data set [1], the system named is Tg 2576 mice. Kind of data set: Cognitive function improving action (mORT) using Tg 2576 mice. In kind it is in vivo, mouse. The conditions noted are these: 30 mg/kg/day mixed in feed for 4 months. The method, then: (§1) Evaluation of Cognitive Function Improving Action and Aβ Reducing Action Using Tg 2576 Mice
(§2) Four-month-old Tg 2576 mice received compounds involved with the present invention mixed in feed for 4 months. After completion of administration, the mORT test was performed to evaluate cognitive function, then the amount of brain Aβ was measured by ELISA. […] Discrimination index as indexes for evaluating cognitive function were as follows (vehicle, 0.064±0.049, 30 mg/kg/day; 0.330±0.062).

The next data set has as its target human SSTR4 (Homo sapiens, UniProt P31391). Briefly: Binding affinity using cell membrane from human SSTR4-expressing Chem-1 cells, [125I] Tyr11-Somatostatin 14. The conditions noted are these: 0.1 nmol/L [125I] Tyr11-Somatostatin 14, 2 hours at 25° C. On the set-up: expressed in transfected cells. The method, then:
Binding affinity evaluation using cell membrane from human SSTR4-expressing cells
From Chem-1 cells forcibly expressing human SSTR4, cell membrane was prepared by using Hepes Buffer. A reaction solution consisting of the prepared cell membrane, 0.1 nmol/L [^125I] Tyr11-Somatostatin 14, and a test compound was prepared, and incubated for 2 hours at 25° C. The cell membrane after incubation was filtered, and washed. After dried, the filter was immersed in a scintillator, its radioactivity was measured with a scintillation counter. By defining the difference in radioactivity between the substance not containing a test compound and the substance containing 1 μmol/L Somatostatin 14 as the specific binding amount, inhibitory rates of test compounds were calculated. Based on IC50 of the test compound calculated from the inhibition curve, the concentration of [^125I] Tyr11-Somatostatin 14, and Kd of Somatostatin 14, Ki of the test compound was calculated.

Another data set addresses T1, SSTR1 (Homo sapiens, UniProt P30872).
T1 construct: expressed in transfected cells
Kind of data set: Binding affinity using cell membrane from cells expressing SSTR subtypes.

Data set [2] deals with Tg 2576 mice. Kind of data set: Aβ reducing action (brain Aβ by ELISA) using Tg 2576 mice. Format: in vivo, mouse. The method, then:
as §1, §2

The test system of data set [3] is SH-SY5Y cells stably expressing human neprilysin/human SSTR4. Briefly: Neprilysin membrane translocation test using human neprilysin/human SSTR4 coexpressing cells. In kind it is cell-based. The method, then: Neprilysin Membrane Translocation Test Using Human Neprilysin/Human SSTR4 Coexpressing Cells
SH-SY5Y cells stably expressing human neprilysin/human SSTR4 were seeded to culture plates, and incubated in a 37° C./5% CO2 incubator overnight. On the next day, the compounds involved with the present invention were added, and cells were incubated in the 37° C./5% CO2 incubator another night. On the next day, 4% paraformaldehyde was added, and cells were fixed. The cells were washed, and blocked with 3% BSA solution. Then, immunostaining with an anti-neprilysin antibody and Alexa Fluor 488 donkey anti-mouse IgG was performed, and analyzed with an IN CELL Analyzer.

Data set [4] in a line: Pharmacokinetic test (PK test) using rodents. In kind it is in vivo. To be noted: mouse, brain and plasma; mice, 10 mg/kg oral, an hour and 4 hours after; read-out: brain-plasma concentration ratio. The method, then: Moreover, it was verified, as the results of a pharmacokinetic test (PK test) using rodents, that the compound of the present invention has more excellent in vivo kinetics, central nervous system penetration, and exposure level, compared with the pyrrolidine derivative described in Patent Literature 1. In particular, the following Test Example 8 was performed.
Pharmacokinetic Test (PK Test) Using Rodents
Compounds of the present invention were orally administered to mice at a dose of 10 mg/kg, and an hour and 4 hours after, the plasma and the brain were collected, concentrations of the administered compounds were measured by LC/MS/MS. As well, protein binding rates in the plasma and the brain were measured with equilibrium dialysis method, and concentrations of non-binding compounds were calculated. The brain-plasma concentration ratio was about 5 in any cases of an hour and 4 hours after for compounds obtained in Examples 7, 14, 15, 16, 17, 18, 20, 21, 27, 40, and 50, which indicated excellent central nervous system penetration.

Another data set concerns Slc:ddY mice. Briefly: Mouse novel object recognition test (mORT). In kind it is in vivo. The method, then:
Evaluation of cognitive function using mouse novel object recognition test (hereinafter, may be called “mORT”)
In the mORT using Slc:ddY mice (male, Japan SLC, Inc.) with body weight of 25-45 g or 35-40 g, memory deterioration to familiar subject depending on the interval time between the first trial (training) and the second trial (test) is observed. If the second trial is performed 24 hours after performing the first trial, significant forgetting is observed. […] […] (discrimination index as indexes for cognitive function are shown: 0.5% MC receiving group, 0.054±0.026; 3 mg/kg receiving group, 0.245±0.066.)

In the next data set the target is T2, SSTR2 (Homo sapiens, UniProt P30874).
T2 construct: expressed in transfected cells
Kind of data set: Binding affinity using cell membrane from cells expressing SSTR subtypes.

[5] abbreviates: 3 mg/kg oral, given after the first trial.

Bounds are passed on as bounds.

T2 sequence (P30874 whole entry, species assumed): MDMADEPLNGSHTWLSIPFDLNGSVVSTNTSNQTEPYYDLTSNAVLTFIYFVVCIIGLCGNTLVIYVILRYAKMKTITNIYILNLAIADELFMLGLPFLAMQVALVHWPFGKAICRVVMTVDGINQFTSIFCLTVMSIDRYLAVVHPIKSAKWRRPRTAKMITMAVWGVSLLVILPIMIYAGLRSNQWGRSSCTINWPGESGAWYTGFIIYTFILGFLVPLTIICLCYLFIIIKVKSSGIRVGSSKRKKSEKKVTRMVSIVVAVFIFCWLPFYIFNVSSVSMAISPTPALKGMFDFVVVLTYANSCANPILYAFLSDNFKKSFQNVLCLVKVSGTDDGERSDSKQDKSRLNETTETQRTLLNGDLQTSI
Chain of human SSTR4 (P31391 whole entry): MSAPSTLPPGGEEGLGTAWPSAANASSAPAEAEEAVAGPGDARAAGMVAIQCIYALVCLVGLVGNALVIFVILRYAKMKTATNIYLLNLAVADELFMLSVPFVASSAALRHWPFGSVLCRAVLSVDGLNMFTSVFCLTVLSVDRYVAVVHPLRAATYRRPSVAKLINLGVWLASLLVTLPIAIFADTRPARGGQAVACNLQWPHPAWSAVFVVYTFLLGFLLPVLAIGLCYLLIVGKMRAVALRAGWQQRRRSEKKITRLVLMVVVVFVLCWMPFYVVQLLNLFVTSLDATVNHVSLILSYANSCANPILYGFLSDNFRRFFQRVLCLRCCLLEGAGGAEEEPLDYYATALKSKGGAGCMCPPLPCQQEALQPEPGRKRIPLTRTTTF
T1 sequence (P30872 whole entry, species assumed): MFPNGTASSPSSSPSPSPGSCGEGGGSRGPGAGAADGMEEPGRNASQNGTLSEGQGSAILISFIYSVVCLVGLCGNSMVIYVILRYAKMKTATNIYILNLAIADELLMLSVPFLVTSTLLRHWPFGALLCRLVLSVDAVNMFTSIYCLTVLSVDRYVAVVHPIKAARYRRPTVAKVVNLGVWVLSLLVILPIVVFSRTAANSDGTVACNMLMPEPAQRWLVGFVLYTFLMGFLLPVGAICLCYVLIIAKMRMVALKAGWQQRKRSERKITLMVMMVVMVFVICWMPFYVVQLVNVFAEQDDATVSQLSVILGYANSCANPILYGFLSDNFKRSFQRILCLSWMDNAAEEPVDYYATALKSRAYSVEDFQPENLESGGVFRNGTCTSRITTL

In general, Ki refers to the dissociation constant of the complex between target and ligand, obtained from inhibition or displacement. Lower therefore signals a stronger hold on the target. The term EC50 denotes the concentration at which the effect is half-maximal. Low readings indicate an effect from little substance, high ones a need for much substance. With `CN1CCC[C@H](C(=O)NC(C)(C)c2cc(Cl)ccc2Cl)C1` [Example 21, (3S)—N-[2-(2,5-dichlorophenyl)propane-2-yl]-1-methylpiperidine-3-carboxamide], the “acetylcholine level in hippocampus perfusate compared with the Vehicle” value in the data set with Crlj: WI rats was “significantly enhanced acetylcholine level”. Further, the “cognitive function improving action” value with Tg 2576 mice [1] is “significant cognitive function improving action”. Also, the discrimination index turned out to be 0.330±0.062 in the data set on Tg 2576 mice [1]; 0.214±0.072 in the data set with Slc:ddY mice (3 mg/kg oral, administered before the first trial, second trial 24 hours later); 0.245±0.066 in the data set with Slc:ddY mice (setting [5]). Moreover, the figures for the Ki on human SSTR4, on SSTR1 and on SSTR2 were 0.021 µM, 1.57 µM and over 5 µM, respectively. Further, the “hippocampus Aβ42 reducing action compared with the Vehicle” value in the data set on Tg 2576 mice [2] (100 mg/kg/day) is on record as “significant hippocampus Aβ42 reducing action”. The “hippocampus Aβ42” value with Tg 2576 mice [2] (100 mg/kg/day mixed in feed for 4 months) stood at 198.11 ± 26.32 pmol/g. Also, the “translocation of neprilysin to cell membrane” value in data set [3] was “concentration-dependently induced the translocation of neprilysin to cell membrane”. The molecule further came in with an EC50 in [3] (Homo sapiens, SH-SY5Y, overnight incubation, immunostaining, IN CELL Analyzer) of 0.0093 µM. The Kp in data set [4] is about 5. Also, the memory enhancing action entry in the data set with Slc:ddY mice (3 mg/kg (oral), administered before the first trial) was “significant memory enhancing action”; in the data set with Slc:ddY mice (setting [5]), “significant memory enhancing action”.
